Like-named read-outs stand apart in the source and are kept apart here.
Key:
[1] = tested on: SH-SY5Y cells; test: MTT cell viability assay; format: cell-based, human; conditions: read-out: MTT IC50
Method: (§1) SH-SY5Y cells were differentiated as described by Encinas et al. (2000) after seeding onto either poly-D-Lysine hydrobromide (PDL) (50 µg/mL) (P6407, Sigma-Aldrich, Poole, UK) -coated cell cultureware or in 96-well microtitre plates (6005649, Perkin Elmer, Groningen, The Netherlands) with 10% FBS media and after settling, cells were grown to 60% confluency.
In brief, 3 × 10^4 cells/well were grown in laminin-coated 96-well clear-bottom tissue culture plates. Undifferentiated cells were challenged with each agent for 24 h within the concentration ranges specified by diluting each compound in the cell culture medium. Differentiated cells that were grown on 96-well plates were treated with each compound diluted in cell culture medium. After incubation with the compounds, spent media was removed and then replaced with the corresponding media for differentiated or undifferentiated cells containing 10% of 5 mg/mL MTT and incubated for 4 h. Wells that only received 10% MTT and respective growth media served as background controls. The formazan crystals generated were suspended in 1:1 DMSO and isopropanol solution and the absorbance of wells read at 570 nm using a spectrophotometer (Multiskan Spectrum, Thermo Electron Corporation, Vantaa, Finland). Experiments were performed in triplicates from which an average was taken, and blank (negative control) values were subtracted. Cell viability was expressed as a percentage of survival […] from at least five repeated experiments. The concentration of agent producing a 50% inhibition of cell viability (IC50 values) was obtained from the concentration-response curves and expressed as means ± standard error of the mean (SEM).

[2] = tested on: SH-SY5Y cells; test: Lactate dehydrogenase (LDH) assay, extracellular LDH; format: cell-based, human
Method: as §1
The production of active extracellular LDH in response to pesticide exposures was measured using an LDH assay kit (ab65393, Abcam, Cambridge, UK) according to the manufacturer’s instructions. After agent treatment (1–200 µM, or vehicle control), 50 µL of spent media was removed and LDH activity was measured spectrophotometrically at 450 nm (Multiskan Spectrum, Thermo Electron Corporation, Finland). Assays were performed in triplicates, with blank values from a negative control subtracted from test values. IC50 values were obtained from the concentration-response curves and expressed as means ± standard error of the mean (SEM). Experiments were performed with an n-number of at least five.

[3] = tested on: SH-SY5Y cells; test: Intracellular ATP levels, luminescence assay; format: cell-based, human
Method: as §1
Undifferentiated and differentiated cells that were grown in 6-well plates were treated with MTT cell viability inhibition concentrations that produced 10, 20, 50, and an 80% loss of cell viability. Intracellular ATP levels were quantified using an ATP luminescence assay kit (ATP Bioluminescence Assay Kit CLS II (product 11 699 695 001, Roche, Germany), according to the manufacturer’s protocol. ATP standards were prepared according to the kit protocol across a concentration range of 1 × 10^−4 to 1 × 10^−10 M and after the addition of luciferase reagent to each well, the luminescence was measured using a luminometric plate reader (Thermo Fisher Scientific, Fluoroskan Ascent FC, Vantaa, Finland) using an integration time of 1 s. The ATP content in control and pesticide-treated samples were interpolated from the ATP standard curve. Experiments were performed in triplicates and five individual experiments were undertaken from which a mean was calculated, with blank values subtracted.

[4] = tested on: differentiated SH-SY5Y cells; test: Neurite extension (neurite length) in differentiated cells, microscopy; format: cell-based, human; conditions: 24 h, read-out: Neurite Retraction IC50
Method: SH-SY5Y cells were seeded at 5 × 10^5 cells/well in 12-well poly-D-Lysine coated plates and grown for 24 h to ensure cell adhesion. Cells were then treated with pesticides in differentiation media for 24 h. Cell images were captured using a phase contrast microscope (Olympus, DP70, London, UK). Cells were considered differentiated if each neuronal cell contained at least one process that was longer than its cell body. The neurite length from 100 randomly chosen cells were measured in five selected regions of each well using the neurite tracer tool in Image J (Image J 1.49k, National Institute of Health, Bethesda, MD, USA). Results are expressed as mean percentage neurite length (±SEM) relative to vehicle-control treated cells.

[5] = target: T1, acetylcholinesterase (AChE) (Homo sapiens, UniProt P22303); test: cell-based; conditions: 24 h
T1 construct: endogenous in cells; host or cells: SH-SY5Y human neuroblastoma cells (ECACC-94030304), undifferentiated and differentiated
T1 sequence (P22303 32-614): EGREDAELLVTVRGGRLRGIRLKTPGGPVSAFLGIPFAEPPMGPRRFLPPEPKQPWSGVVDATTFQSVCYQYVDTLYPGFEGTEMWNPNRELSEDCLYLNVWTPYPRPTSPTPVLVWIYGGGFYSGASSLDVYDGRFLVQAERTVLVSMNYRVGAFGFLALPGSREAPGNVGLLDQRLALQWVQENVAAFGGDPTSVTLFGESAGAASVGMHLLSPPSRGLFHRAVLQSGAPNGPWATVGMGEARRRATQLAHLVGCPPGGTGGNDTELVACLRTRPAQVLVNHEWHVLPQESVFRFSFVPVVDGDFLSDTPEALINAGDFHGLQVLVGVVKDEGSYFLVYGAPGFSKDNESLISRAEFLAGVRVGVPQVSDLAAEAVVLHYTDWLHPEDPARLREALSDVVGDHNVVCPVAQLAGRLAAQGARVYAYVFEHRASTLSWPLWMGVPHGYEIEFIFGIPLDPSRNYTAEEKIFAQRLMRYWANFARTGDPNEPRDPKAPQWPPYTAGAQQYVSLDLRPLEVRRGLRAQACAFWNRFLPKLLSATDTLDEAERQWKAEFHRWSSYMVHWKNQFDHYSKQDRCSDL
Method: Inhibition of AChE was assessed using an Ellman’s assay modified for harvested cells [32, 33]. […] The supernatant was discarded, and the resultant cell pellet was retained and resuspended in 1 mL of potassium phosphate buffer pH 8.0. A volume of 100 µL was then assayed as a 1:1 mixture with ATCI and DTNB. […] Since the absorbance background increased with time, the associated absorbance of buffer blanks was subtracted at each time point for each data point. Corrected absorbance readings for each treatment were normalized to the means of the vehicle control and AChE activity presented as a percentage relative to the vehicle control.

[6] = tested on: rat; conditions: cited from earlier work
[7] = WHO class; cited from earlier work
[8] = Homo sapiens, differentiated SH-SY5Y cells

`COP(=O)(OC)SCn1c(=O)oc2cc(Cl)cnc21` [AZO, 6-chloro-3-(dimethoxyphosphorylsulfanylmethyl)-[1,3]oxazolo[4,5-b]pyridin-2-one] showed an IC50 ([1]; Homo sapiens, SH-SY5Y, 24 h) of 26.9 ± 1.1 µM, an IC50 ([1]; Homo sapiens, SH-SY5Y) of 19.6 ± 0.5 µM and an IC50 ([2]; Homo sapiens, SH-SY5Y, 24 h, read-out: LDH IC50, differentiated SH-SY5Y cells, 24 h exposure) of 20.5 ± 1.6 µM. It also gave an IC50 ([2]; Homo sapiens, SH-SY5Y, 24 h, read-out: LDH IC50, undifferentiated SH-SY5Y cells, 24 h exposure) of 26.5 ± 0.9 µM, an IC50 ([3]; Homo sapiens, SH-SY5Y, read-out: ATP IC50, differentiated SH-SY5Y cells) of 20.7 ± 0.1 µM and an IC50 ([3]; Homo sapiens, SH-SY5Y, read-out: ATP IC50, undifferentiated SH-SY5Y cells) of 26 ± 0.6 µM. The IC50 ([4]; Homo sapiens, SH-SY5Y) was 16.5 ± 1.3 µM, the IC50 ([5]; AChE Inhibition IC50, differentiated SH-SY5Y cells) was 0.22 µM and the IC50 ([5]; AChE Inhibition IC50, undifferentiated SH-SY5Y cells) was 0.3 µM. The “rat oral LD50” value [6] was 1180 mg/kg and the hazard classification [7] was “Class II”.

In the case of `CNC(=O)O/N=C/C(C)(C)SC` [Aldicarb, [(E)-(2-methyl-2-methylsulfanylpropylidene)amino] N-methylcarbamate], the IC50 [1, 8] is reported as 31.6 ± 2.2 µM, the IC50 ([1]; Homo sapiens, undifferentiated SH-SY5Y cells, 24 h exposure) is reported as 39.6 ± 3.6 µM and the IC50 ([2]; Homo sapiens, SH-SY5Y, 24 h, differentiated SH-SY5Y cells, 24 h exposure, read-out: LDH IC50) is reported as 29.9 ± 1.6 µM. For the same compound, the IC50 ([2]; Homo sapiens, SH-SY5Y, 24 h, undifferentiated SH-SY5Y cells, 24 h exposure, read-out: LDH IC50) was 35.4 ± 1.4 µM, the IC50 ([3]; Homo sapiens, SH-SY5Y, differentiated SH-SY5Y cells, read-out: ATP IC50) was 32.4 ± 1.2 µM and the IC50 ([3]; Homo sapiens, SH-SY5Y, undifferentiated SH-SY5Y cells, read-out: ATP IC50) was 40.2 ± 2.9 µM. For the same compound, the IC50 [4, 8] was 30.2 ± 4.7 µM, the “rat oral LD50” value [6] was 0.65 mg/kg and the hazard classification [7] was “Class Ia”.

Work on `CCOP(=O)(OCC)Oc1nc(Cl)c(Cl)cc1Cl` [CPO, diethyl (3,5,6-trichloropyridin-2-yl) phosphate] yielded an IC50 ([1]; differentiated SH-SY5Y cells) of 17.3 ± 0.9 µM, an IC50 ([1]; undifferentiated SH-SY5Y cells, 24 h exposure) of 29.4 ± 2.1 µM and an IC50 ([2]; differentiated SH-SY5Y cells, 24 h exposure, read-out: LDH IC50) of 17.2 ± 1.1 µM. For the same compound, the IC50 ([2]; undifferentiated SH-SY5Y cells, 24 h exposure, read-out: LDH IC50) was 27.8 ± 2.1 µM, the IC50 ([3]; differentiated SH-SY5Y cells, read-out: ATP IC50) was 18.8 ± 0.1 µM and the IC50 ([3]; undifferentiated SH-SY5Y cells, read-out: ATP IC50) was 29.6 ± 2.1 µM. For the same compound, the IC50 ([4]; differentiated SH-SY5Y cells) was 10.8 ± 0.1 µM.

For `CCOP(=S)(OCC)Oc1nc(Cl)c(Cl)cc1Cl` [chlorpyrifos, Chlorpyrifos], the “rat oral LD50” value [6] is given as 82 mg/kg.

— PMC10216341 (Brain Sciences, 2023)
